Laboratory results published in patent publication US12559505B2, “IDH mutant inhibitor and use thereof” (WIGEN BIOMEDICINE TECHNOLOGY (SHANGHAI) CO., LTD., priority 2020, dated 2026).
Like-named read-outs stand apart in the source and are kept apart here.

Tests used:
[1] = test system: 2-HG in HT1080 tumor tissues; assay: Detection of 2-HG in HT1080 tumor tissues of nude mice; format: in vivo; conditions: Mus musculus, HT-1080, sc, subcutaneous HT1080, 20 mg/kg
Procedure: Nude mice were inoculated subcutaneously with 1×10^6 HT1080 cells. When the tumor volume reached 100-150 mm^3, the mice were randomly grouped into solvent control group and compounds 1, 70, 79, 85, 96, 139, 157 and LY-3410738 20 mg/kg groups. The tumors were collected three days and seven days after continuous administration, weighed, digested with a digestion solution and then homogenized. The level of 2-HG in the tumor tissues were determined by LC-MS-MS. The percentage inhibition of compounds on 2-HG in tumor tissues was calculated as compared with the control.

IDH R132C = biological target: T1, IDH R132C (Homo sapiens, UniProt O75874, R132C); assay: Detection of 2-HG in supernatant of U87-IDH R132C cells; format: cell-based; conditions: 72 h, LC-MS-MS, vs control; for inhibition at 0.001 µM: 1 nM compound, read-out: Inhibition rate of compounds on 2-HG in the supernatant of U87-IDH R132C cells, 1 nM; for inhibition at 0.01 µM: 10 nM compound, read-out: Inhibition rate of compounds on 2-HG in the supernatant of U87-IDH R132C cells, 10 nM; for inhibition at 0.1 µM: 100 nM compound, read-out: Inhibition rate of compounds on 2-HG in the supernatant of U87-IDH R132C cells, 100 nM
T1 construct: expressed in transfected cells; host or cells: U87 cells
Procedure: U87 cells overexpressing the IDH R132C mutation were seeded in a 48-well plate at 50,000 cells/well. After the cells were incubated overnight for adhesion, the supernatant was removed. The cell culture media containing serially diluted compounds were added, and the cells were incubated for 72 h. After 72 h, the cultures were collected and diluted 10-fold with water, and acetonitrile was added to extract the metabolites. The 2-HG content in the cultures was analyzed by LC-MS-MS, and the percentage inhibition of compounds on 2-HG in the supernatant was calculated as compared with the control.

[2] = 72 h, three days of continuous administration, read-out: Inhibition rate of compounds on 2-HG in HT1080 tumor tissues, 3 days
[3] = 168 h, seven days of continuous administration, read-out: Inhibition rate of compounds on 2-HG in HT1080 tumor tissues, 7 days

T1 sequence (O75874 whole entry R132C): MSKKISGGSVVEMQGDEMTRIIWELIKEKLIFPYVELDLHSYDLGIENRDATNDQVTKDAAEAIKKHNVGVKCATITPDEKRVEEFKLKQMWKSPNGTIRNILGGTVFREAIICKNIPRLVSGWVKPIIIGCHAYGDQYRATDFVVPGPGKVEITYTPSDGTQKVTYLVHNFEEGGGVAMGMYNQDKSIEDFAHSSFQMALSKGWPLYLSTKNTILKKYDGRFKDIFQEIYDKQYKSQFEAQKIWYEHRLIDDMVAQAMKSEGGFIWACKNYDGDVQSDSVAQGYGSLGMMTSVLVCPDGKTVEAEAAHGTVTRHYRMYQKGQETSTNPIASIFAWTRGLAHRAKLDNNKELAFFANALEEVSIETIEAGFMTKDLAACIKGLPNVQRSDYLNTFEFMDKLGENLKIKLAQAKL

For `C=CC(=O)N1CCN(C(CC2CC2)c2ccc([C@H](C)Nc3ncc4c(n3)N(C(C)C)C(=O)NC4)cc2)CC1` (some centres unmarked) [Compound 79], the inhibition in vivo at 20 mg/kg [1, 2] was 50 ± 3%, the inhibition in vivo at 20 mg/kg [1, 3] was 97 ± 1% and the inhibition at 0.001 µM (IDH R132C) was 30 to 60%. For the same compound, the inhibition at 0.01 µM (IDH R132C) was 60 to 90% and the inhibition at 0.1 µM (IDH R132C) was greater than 90%.

Work on `C=CC(=O)N1CCN(C(CC23CC(C2)C3)c2ccc([C@H](C)Nc3ncc4c(n3)N(CC)C(=O)OC4)cc2)CC1` (some centres unmarked) [Compound 157] yielded an inhibition in vivo at 20 mg/kg [1, 2] of 60 ± 8%, an inhibition in vivo at 20 mg/kg [1, 3] of 90 ± 7% and an inhibition at 0.001 µM (IDH R132C) of 60 to 90%. For the same compound, the inhibition at 0.01 µM (IDH R132C) was greater than 90% and the inhibition at 0.1 µM (IDH R132C) was greater than 90%.

Compound `C=CC(=O)N1CC2(C1)CN(C(CC1CC1)c1ccc([C@H](C)Nc3ncc4c(n3)N(CC)C(=O)OC4)cc1)C2` (some centres unmarked) [Compound 1] has an inhibition in vivo at 20 mg/kg [1, 2] of 54 ± 18%, an inhibition in vivo at 20 mg/kg [1, 3] of 95 ± 0.5% and an inhibition at 0.001 µM (IDH R132C) of 30 to 60%. It also gave an inhibition at 0.01 µM (IDH R132C) greater than 90% and an inhibition at 0.1 µM (IDH R132C) greater than 90%.

Work on `C=CC(=O)N1CCN(C(CC2CC2)c2ccc([C@H](C)Nc3ncc4cnc(=O)n(C(C)C)c4n3)cc2)CC1` (stereo partly drawn) [Compound 85, 7-(((1S)-1-(4-(1-(4-acryloylpiperazin-1-yl)-2-cyclopropylethyl)phenyl)ethyl)amino)-1-isopropylpyrimidine[4,5-d]pyrimidine-2(1H)-one] yielded an inhibition in vivo at 20 mg/kg [1, 2] of 57 ± 6%, an inhibition in vivo at 20 mg/kg [1, 3] of 94 ± 3% and an inhibition at 0.001 µM (IDH R132C) of 60 to 90%. The inhibition at 0.01 µM (IDH R132C) was greater than 90% and the inhibition at 0.1 µM (IDH R132C) was greater than 90%.
